The target in this experiment is T1, Wild type glucocorticoid receptor (Rattus norvegicus, UniProt P06536).
T1 construct: Thus the full length receptor was removed from the VARO vector with BamHI and inserted into the SVL vector; expressed in transfected cells; host or cells: COS-7 (cytosol)
T1 sequence (P06536 1-795): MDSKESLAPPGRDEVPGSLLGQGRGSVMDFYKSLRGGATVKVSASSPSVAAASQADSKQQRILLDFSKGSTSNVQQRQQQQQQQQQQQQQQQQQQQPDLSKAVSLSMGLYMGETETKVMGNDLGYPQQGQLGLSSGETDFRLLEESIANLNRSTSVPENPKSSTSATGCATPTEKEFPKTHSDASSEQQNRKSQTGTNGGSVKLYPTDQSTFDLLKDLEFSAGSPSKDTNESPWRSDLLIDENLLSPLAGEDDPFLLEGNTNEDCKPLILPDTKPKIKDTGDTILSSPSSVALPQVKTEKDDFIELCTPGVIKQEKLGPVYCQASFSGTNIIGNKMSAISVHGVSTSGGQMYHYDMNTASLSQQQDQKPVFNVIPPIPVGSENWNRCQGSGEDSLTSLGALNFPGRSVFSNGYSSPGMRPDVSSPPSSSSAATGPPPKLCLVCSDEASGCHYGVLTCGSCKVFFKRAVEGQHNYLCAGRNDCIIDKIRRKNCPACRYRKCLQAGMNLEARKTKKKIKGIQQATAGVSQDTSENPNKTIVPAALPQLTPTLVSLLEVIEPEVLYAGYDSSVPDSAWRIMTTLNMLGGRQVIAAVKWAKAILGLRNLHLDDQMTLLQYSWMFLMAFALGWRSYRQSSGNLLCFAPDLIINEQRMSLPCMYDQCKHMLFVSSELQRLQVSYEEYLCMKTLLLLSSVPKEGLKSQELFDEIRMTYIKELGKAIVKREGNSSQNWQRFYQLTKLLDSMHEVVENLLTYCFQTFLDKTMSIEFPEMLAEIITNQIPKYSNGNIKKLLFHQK
The experiment can be described thus: Competition binding assay with [3H]Dex, COS-7 cytosol, wild type receptor. The protocol: Monolayer cultures of COS-7 cells were grown in DMEM (Gibco) supplemented with 5% fetal bovine serum (FBS) (Biofluids) at 37° C. in a 5% CO2 incubator. Standard calcium phosphate transfection methods were used to introduce the wild type and mutant receptor expression vectors (pSVL) into COS-7 cells (100 mm plates [Costar] at a cell density of about 10^6 /plate were each treated with 10 μg of plasmid DNA). After ~16 hrs of incubation at 37° C. in a 5% CO2 incubator, the excess calcium phosphate and precipitate were removed by washing with phosphate buffered saline (PBS). […]
COS-7 cell cytosol containing the steroid-free receptors was prepared by cell lysis at -80° C. and centrifugation at 15,000 ×g and labeled as described for HTC cells (S. S. Simons and P. A. Miller, Biochem 23:6876-6882 (1984)). […] The specifically bound [^3 H]Dex was determined by first adding a 10% dextran-coated charcoal solution (added volume =20% of reaction solution volume) to remove free steroid and then subtracting the nonspecific binding seen in the presence of excess nonradioactive Dex. […]
The specificity of steroid binding was determined by Rodbard correction (Rodbard, 1973) of the data from a competition binding assay (S. S. Simons et al., Biochem. Biophys. Res. Comm. 86:793-800 (1979); Miller and Simons, 1988). […]

For the compound `C[C@]12CC[C@@H]3c4ccc(O)cc4CC[C@H]3[C@@H]1CC[C@@H]2O` [17β-Estradiol, 17β-estradiol], the “Relative Ka of Steroid Binding to Receptor” value amounted to 0.029 ± 0.006.
Then `CC#C[C@]1(O)CC[C@H]2[C@@H]3CCC4=CC(=O)CCC4=C3[C@@H](c3ccc(N(C)C)cc3)C[C@@]21C` [RU486], with 3.4 ± 1.2.

For the origin of these results see patent US5215916A, “Super glucocorticoid receptors: receptors with increased affinity and specificity for glucocorticoid steriods” (priority 1991, dated 1993).
